In patent US5393768A, “Leukotriene antagonists” (Eli Lilly and Company, priority 1993, dated 1995):

Columns and labels:
[1] = tested on: LTD4 evoked contractions of guinea pig ileum; assay: Percent inhibition of LTD4 evoked ileal contractions (single submaximal LTD4 response, 5 minute drug exposure); type: cell-based, guinea pig (male, Hartley); settings: Cavia porcellus
Protocol: Male, Hartley guinea pigs weighing 200-450 grams were killed by decapitation. A section of terminal ileum was removed, the lumen cleaned, and the tissue divided into 2.5 cm. segments. The ilea were mounted in 10 ml. tissue baths containing Krebs-bicarbonate solution of the following composition in mmoles/-liter: KCl, 4.6; CaCl2 ·2H2 O, 1.2; KH2 PO4, 1.2; MgSO4 ·7H2 O, 1.2; NaCl, 118.2; NaHCO3, 24.8; and dextrose, 10.0. The bath fluid was maintained at 37° C. and aerated with 95 percent oxygen and 5 percent CO2. In addition, the buffer contained 1×10^-6 M atropine to reduce ileal spontaneous activity. Isometric measurements were made with a Grass FTO3C force-displacement transducer and recorded on a Grass polygraph as change in grams of force. A passive force of 0.5 g. was applied to the tissues. After an appropriate equilibration period, single submaximal control responses to pure LTD4 were obtained. Following a five minute exposure of the ileum to an experimental drug, the control concentration of LTD was added to the tissue bath. The response of the ileum to LTD4 in the presence of the drug was compared to the response in the absence of the drug.

[2] = target: T1, LTD4 evoked contractions of guinea pig ileum (Cavia porcellus, UniProt Q2NNR5); assay: LTD4 antagonism, cumulative concentration-response curves (Schild pA2); type: cell-based; settings: 30 minute incubation, negative log of KB
T1 construct: A section of terminal ileum was removed, the lumen cleaned, and the tissue divided into 2.5 cm. segments; from tissue; host or cells: terminal ileum of male Hartley guinea pigs
T1 sequence (Q2NNR5 1-340): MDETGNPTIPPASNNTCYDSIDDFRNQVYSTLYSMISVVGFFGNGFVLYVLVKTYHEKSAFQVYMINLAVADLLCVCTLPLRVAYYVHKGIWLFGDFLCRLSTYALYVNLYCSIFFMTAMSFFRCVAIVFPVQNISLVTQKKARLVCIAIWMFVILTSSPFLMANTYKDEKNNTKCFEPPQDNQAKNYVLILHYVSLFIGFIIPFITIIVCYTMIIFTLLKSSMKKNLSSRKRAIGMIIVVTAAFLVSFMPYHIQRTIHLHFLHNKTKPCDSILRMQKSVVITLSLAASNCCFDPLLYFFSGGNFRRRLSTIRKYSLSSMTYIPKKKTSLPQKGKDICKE
Protocol: For some of the drugs in this series a more detailed analysis of LTD4 antagonism was made. In these experiments, cumulative concentration-response curves were obtained to LTD4 in guinea pig ileum and trachea. This was followed by a 30 minute incubation with various concentrations of the experimental drug. The concentration response curve to LTD4 was then repeated in the presence of the antagonist. Only one concentration of antagonist was used on a single tissue. KB values were calculated by the method of Furchgott [Ann. N.Y. Acad. Sci., 139, 553 (1967)] using the following equation. [formula]
Dose ratio refers to the concentration of agonist required to elicit 50 percent of the maximal response (ED50) in the presence of the antagonist divided by the ED50 in the absence of the antagonist. Calculations were performed with the aid of a computer and a digital plotter.

CCCc1c(C[S+]([O-])Cc2ccc(-c3nnn[nH]3)cc2)ccc(C(C)=O)c1O (stereo not shown) [Example 53, 5-[4-(4-Acetyl-3-hydroxy-2-propylbenzylsulfinylmethyl)phenyl]-tetrazole]
inhibition at 0.1 µM ([1]; Compound concentration 1 × 10^-7 M): 14%
inhibition at 3 µM ([1]; Compound concentration 3 × 10^-6 M): 39%
inhibition at 0.3 µM ([1]; Compound concentration 3 × 10^-7 M): 4%
Kb [2]: 6.31 µM
